{"source": "paper PMC7380097", "about": "“Measurement of Bradykinin Formation and Degradation in Blood Plasma: Relevance for Acquired Angioedema Associated With Angiotensin Converting Enzyme Inhibition and for Hereditary Angioedema Due to Factor XII or Plasminogen Gene Variants” (Frontiers in Medicine, 2020)", "molecules": {"B1": {"name": "lanadelumab: Human monoclonal antibody, target plasma kallikrein (antibody, chains of the INN, looked up, V domains shown)", "VH": "EVQLLESGGGLVQPGGSLRLSCAASGFTFSHYIMMWVRQAPGKGLEWVSGIYSSGGITVYADSVKGRFTISRDNSKNTLYLQMNSLRAEDTAVYYCAYRRIGVPRRDEFDIWGQGTMVTVSS", "VL": "DIQMTQSPSTLSASVGDRVTITCRASQSISSWLAWYQQKPGKAPKLLIYKASTLESGVPSRFSGSGSGTEFTLTISSLQPDDFATYYCQQYNTYWTFGQGTKVEIK"}}, "key": {"[1]": {"details": "cited from earlier work", "from_the_text": "ACE blockade greatly increases BK persistence and pharmacological effect in human whole blood under a variety of in vitro stimulation conditions ([20]). Membrane-bound ACE produced by vascular endothelial cells is shed in an apparently regulated manner into blood plasma ([34]), allowing the use of blood/plasma/serum to monitor ACE activity in human subjects."}, "[2]": {"assay": "in vitro", "format": "in vitro ADME", "details": "human; for half-life at 100 nM: plasma", "experimental": "(§1) Venous blood was collected without contact with glass in plastic blood collection tubes with 0.11 M sodium citrate (BD Vacutainer Plus, BD Biosciences, Franklin Lake, NJ); the plasma was obtained by centrifugation (1,300 g, 20 min, room temperature), stored at −80°C until use and/or expedition on dry ice to Quebec City. The in vitro activation of plasma at 37°C (200 μl per experimental point sample) was performed precisely as described ([21]) in the presence of enalaprilat (final concentration 130 nM) to reduce the breakdown of BK. The samples were incubated for up to 120 min under rotary agitation (300 rpm) without any added stimulant or with recombinant human tissue kallikrein (KLK-1, 10 nM; gift from DiaMedica, Inc.), with the particulate contact system activator Pacific Hemostasis Kontact-APTT™ (2% v/v; used without the calcium supplement; composed mainly of magnesium aluminum silica and rabbit brain phospholipid; ThermoFisher Scientific) or with recombinant tissue plasminogen activator (tPA, 169 nM; Cathflo, Roche). The tPA concentration was reproduced from Molinaro et al. ([19]) and within the range reached in plasma during therapeutic fibrinolysis. Biotechnological inhibitors used in the mechanistic analysis of iBK formation were previously exploited ([20], [21]) and are listed in Table 2.\nAn additional set of experiments aimed at measuring the rate of BK breakdown in the presence or absence of the ACE inhibitor enalaprilat or in plasma from selected human subjects: synthetic BK (100 nM) was added to 200 μl of plasma from healthy volunteers or HAE-nC1-INH patients and incubated at 37°C under agitation for 0–20 min.\nIn all experiments dealing with BK EIA, the reactions were stopped by adding 1 ml of cold ethanol, as described ([21]). After further incubation on ice-water for an additional period of at least 60 min, the plasma/ethanol mixtures were cleared of precipitated proteins by centrifugation (13,000 g, 1 min), evaporated to dryness (Speed Vac apparatus) and stored at −80°C until used for BK determination. Then, the samples were reconstituted with 200 μl of distilled water, further diluted 100-fold (1,000-fold for selected samples) with the supplied EIA buffer and directly applied in duplicate to the BK EIA as recommended by the manufacturer (Phoenix Pharmaceuticals, Burlingame, CA; cat. no. EK-009-01; 96-well plate format). The BK EIA is fully cross-reactive with Lys-BK, but not at all with des-Arg^9-BK or Lys-des-Arg^9-BK.\nNumerical values are reported as means ± standard errors of the mean (S.E.M.). Sets of values were compared with Kruskall-Wallis test (non-parametric ANOVA) followed by Dunn's multiple comparison test to compare selected pairs of values. Pairs of values were compared using Mann-Whitney test (Prism 5.0, GraphPad Software Inc., San Diego, CA). The half-life (t1/2) of iBK was calculated as the first order decay procedure in a software suite ([30])."}, "[3]": {"test_system": "angiotensin converting enzyme (ACE)", "assay": "Effect of oral enalapril maleate on ex vivo BK half-life in plasma of healthy volunteers", "set-up": "species or system human", "details": "2 daily oral doses of enalapril maleate 10 mg, healthy volunteers (two), plasma 24 h after the last dose vs before dosing", "protocol": "Numerical values are reported as means ± standard errors of the mean (S.E.M.). […] The half-life (t1/2) of iBK was calculated as the first order decay procedure in a software suite ([30])."}, "[4]": {"assay": "Blood pressure of healthy volunteers taking enalapril maleate", "format": "in vivo, human", "details": "two normotensive healthy volunteers, 2 daily doses of enalapril maleate 10 mg (Figure S1)", "experimental": "We previously reported that iBK formation was negligible in either whole blood or plasma incubated at 37°C without stimulus both in healthy donors and HAE patients sampled during remission (HAE-C1-INH type I or II) ([20], [21]). This may be paradoxical because HK is spontaneously and progressively cleaved in the blood of patients with HAE-C1-INH ([15], [16]) or HAE-nC1-INH ([17]). A possible explanation is the efficient clearance of kinins."}, "[5]": {"test_system": "human B2 receptor", "details": "cited from earlier work"}, "[6]": {"test_system": "human B1 receptor", "details": "cited from earlier work", "from_the_text": "In the plasminogen sequence, the residue 330 is not proximal to a physiological cleavage site or to the catalytic site: it is rather located within a potential adhesion site in the kringle 3 domain of the molecule ([5]). However, the K330E variant is associated with a distinct N-glysosylation pattern and an increased susceptibility to activation by urokinase-type plasminogen activator (uPA), but not by tPA (assessed only using a chromogenic substrate) ([41]). […] If uP ..."}, "[7]": {"test_system": "iBK generation induced by Kontact-APTT", "assay": "Kontact-APTT-induced iBK generation in plasma from HAE-FXII (T328K) patients, effect of biotechnological inhibitors", "format": "biochemical, human", "details": "Kontact-APTT 2% v/v, 5 min incubation, enalaprilat 130 nM present, inhibitor added 5 min before stimulus, 37°C, EIA", "experimental": "as §1, with “2. […]” for “2.”"}, "[8]": {"test_system": "iBK generation induced by tPA", "assay": "tPA-induced iBK generation in plasma from HAE-FXII (T328K) patients, effect of biotechnological inhibitors", "format": "biochemical, human", "details": "tPA 169 nM, 20 min incubation, enalaprilat 130 nM present, inhibitor added 5 min before stimulus, 37°C, EIA", "experimental": "as §1, with “2. […]” for “2.”"}, "[9]": {"test_system": "KLK-1-induced iBK formation", "assay": "KLK-1-induced iBK formation in plasma from HAE-PLG patients, effect of lanadelumab", "format": "biochemical, human", "details": "KLK-1 10 nM, 5 min incubation, inhibitor added 5 min before KLK-1, enalaprilat 130 nM present, EIA", "experimental": "as §1, with “2. […]” for “2.”"}}, "note": "Where “and” joins values, the source holds several entries; their conditions need not be identical. Equal values may be shown once. Entries after “also recorded” stand apart in the source; their conditions may differ. Where a name gives a salt, the structure may show the parent alone. Residues, ends and D or L forms follow the SMILES beside them.", "data": [{"molecule": "NC(N)=NCCC[C@H](NC(=O)[C@H](Cc1ccccc1)NC(=O)[C@@H]1CCCN1C(=O)[C@H](CO)NC(=O)[C@H](Cc1ccccc1)NC(=O)CNC(=O)[C@@H]1CCCN1C(=O)[C@@H]1CCCN1C(=O)[C@@H](N)CCCN=C(N)N)C(=O)O", "note": "[BK, Bradykinin] (H-RPPGFSPFR-OH)", "values": [{"measurement": "t1/2 of BK in serum", "setting": "[1]", "result": 27, "unit": "s"}, {"measurement": "half-life at 100 nM", "setting": "[2]; female, BK t1/2 in plasma of family d (HAE-nC1-INH, unknown cause)", "result": 22.5, "unit": "s"}, {"measurement": "half-life (t1/2) of BK in normal plasma", "setting": "[2]", "result": 33, "unit": "s"}, {"measurement": "half-life at 100 nM", "setting": "[2]; BK t1/2 in plasma 24 h after 2nd oral dose of enalapril maleate", "result": 190, "unit": "s"}, {"measurement": "half-life at 100 nM", "setting": "[2]; BK t1/2 in plasma before dosing (baseline)", "result": 39.5, "unit": "s"}, {"measurement": "half-life at 100 nM", "setting": "[2]; half-life (t1/2) of BK in normal plasma", "result": 34, "unit": "s"}, {"measurement": "half-life at 100 nM", "setting": "[2]; half-life (t1/2) of BK in plasma with ACE blocked by enalaprilat", "result": 426, "unit": "s"}]}, {"molecule": "CCOC(=O)[C@H](CCc1ccccc1)N[C@@H](C)C(=O)N1CCC[C@H]1C(=O)O", "note": "[enalapril maleate]", "values": [{"measurement": "fold increase of BK t1/2 in plasma after oral dosing", "setting": "[3]", "result": "~ 5 fold and 4.8 fold"}, {"measurement": "blood pressure change during the experiment", "setting": "[4]", "result": "slight reversible drop"}]}, {"molecule": "Lys-BK: kinin formed by KLK-1 mainly from low molecular weight kininogen; direct B2 receptor agonist", "values": [{"measurement": "potency relative to BK at the human B2 receptor", "setting": "[5]", "result": "approximately equipotent"}]}, {"molecule": "Lys-des-Arg^9-BK", "values": [{"measurement": "agonist status at the human B1 receptor", "setting": "[6]", "result": "optimal agonist"}]}, {"molecule": "des-Arg^9-BK", "values": [{"measurement": "change of half-life of synthetic des-Arg9-BK when ACE is blocked", "setting": "[1]", "result": "doubled"}, {"measurement": "affinity for the human form of the B1 receptor", "setting": "[6]", "result": "low affinity"}]}, {"molecule": "B1", "values": [{"measurement": "effect on early iBK response to Kontact-APTT", "setting": "[7]", "result": "significantly decreased"}, {"measurement": "effect on early iBK release induced by tPA", "setting": "[8]", "result": "significantly decreased; also recorded: suppressed"}, {"measurement": "effect on KLK-1-induced iBK formation", "setting": "[9]", "result": "not decreased; also recorded: Lack of effect; also recorded: did not inhibit"}]}]}
